From patent publication US20260318831A1 (University of Cincinnati, priority 2023, published 2026)

What was measured:
[1] = system: endolysosomes in HeLa cells; assay: Dual-channel confocal imaging of PyQPMe-stained endolysosomes, co-stained with LTDR; assay type: cell-based
Procedure: Next, imaging studies of PyQPMe were performed under a dual channel mode with the same excitation of 405 nm (green channel, emission range of 470-530 nm; red channel, emission range of 610-680 nm). Due to the strong green emission properties of PyQPMe over a wide pH range, many puncta fluorescence appeared throughout the cell in the green channel image (FIG. 3A). While in the red channel image, there is less puncta fluorescence in the cell because PyQPMe only emits red light at pH values below 6. Therefore, this imaging property of PyQPMe at different channels can guide one to track different stages of endocytosis. Images were randomly zoomed in and their fluorescence intensity was compared. […] Further, the average diameter of PyQPMe red spots is around 0.6 μm, which is in line with the reported size of lysosomes. To further verify the targeting ability of PyQPMe, the cells were co-stained with commercial lysosome dye Lyso-Tracker Deep Red (LTDR) and imaged under a deep red channel (excitation of 640 nm, emission range of 690-740 nm).
(§1) Leica Stellaris 8 Confocal imaging. High-resolution images were acquired on a commercial Leica Stellaris 8 Confocal Microscope under LIGHTNING mode. Laser powers were set at 10% intensity for 405 nm and 640 nm channels. The objective was 63×/1.4. High-resolution images were captured from the randomly selected field of view and analyzed with Leica LAS X and ImageJ software. All the images were exported on the Auto scale of the Leica LAS X software. Cells were seeded on glassed-bottomed cell dishes (MatTek) for 24 hours. Cells stained with PyQPMe (20 nM, 10 min) were treated with Wortmannin (1 μM, 24 h), CCCP ([…], 24 h), rapamycin (0.5 μM, 24 h), chloroquine (25 μM, 30 min), and NH4Cl (50 mM, 30 min). All PCC values were analyzed in the CellProfiler.

[2] = system: endolysosomes in HeLa cells; assay: Resolution limit in LIGHTNING confocal images; assay type: cell-based
Excerpt: The fluorescence images of PyQPMe were compared before and after the LIGHTNING module. […] To test the resolution limit of PyQPMe, confocal images were stochastically selected, and underlined the areas with luminescence in the images (FIG. 4A, 4C). The FWHMs (full width at half maximum) of these bright puncta fluorescence of PyQPMe-stained endolysosomes and later endosomes/lysosomes are down to 174 nm and 184 nm (FIG. 4B, 4D), respectively.
as §1

## CN1CCN(c2ccc(/C=C/c3ccc4cc(-c5ccncc5)ccc4[n+]3C)cc2)CC1 [PyQPMe, (E)-1-methyl-2-(4-(4-methylpiperazin-1-yl)styryl)-6-(pyridin-4-yl)quinolin-1-ium]
[1]; ex 405 nm, early endosomes
  ratio of red to green fluorescence intensity, early endosomes: very low ratio of red to green fluorescence intensity
[1]; ex 405 nm, late endosomes/lysosomes
  ratio of red to green fluorescence intensity, late endosomes/lysosomes: higher than 1
[1]; green channel particles vs deep red channel of LTDR
  PCC with LTDR, green channel: 0.46
[1]; red channel
  average diameter of red spots: around 0.6 μm
[1]; red channel puncta vs deep red channel of LTDR
  Pearson correlation coefficient (PCC) with LTDR, red channel: about 0.70
[1]; red channel, 610-680 nm
  pH below which red light is emitted: below 6
[2]; PyQPMe-stained endolysosomes
  FWHM of puncta, endolysosomes: 174 nm
[2]; PyQPMe-stained late endosomes/lysosomes
  FWHM of puncta, late endosomes/lysosomes: 184 nm
